In patent publication US20220304950A1, “[…] THE TREATMENT OF PATIENTS WITH MAJOR DEPRESSIVE DISORDER, INCLUDING SUICIDALITY” (JANSSEN PHARMACEUTICALS, INC., priority 2019, published 2022):

Test system: adult patients with MDD assessed to be at imminent risk for suicide
Assay: Adverse events (TEAEs, SAEs), Study 1 (Example 4)
Description: This is a randomized, double-blind, placebo-controlled, multicenter study to evaluate the efficacy of intranasal esketamine 84 mg compared with intranasal placebo in addition to comprehensive standard of care in reducing the symptoms of MDD, including suicidal ideation, in adult male and female patients who were assessed to be at imminent risk for suicide.
The study consisted of a screening evaluation performed within 48 hours prior to the Day 1 intranasal dose, immediately followed by a 25-day double-blind treatment phase (Day 1 to 25), and a 65-day follow-up phase (Day 26 to Day 90). The total study duration for each subject was approximately 13 weeks.
The study consisted of a screening evaluation performed within 24 to 48 hours prior to the Day 1 dose, immediately followed by a 25-day double-blind treatment phase (Day 1 to 25) with twice-weekly dosing sessions, and a 9-week follow up phase (Day 26 to Day 90). All participants received comprehensive SOC, including in-patient psychiatric hospitalization and the initiation or optimization of standard antidepressant medication (determined by the treating physician based on clinical judgment and practice guidelines).

[1] = Esk 84 mg + SOC, double-blind phase
[2] = Esk 84 mg + SOC, double-blind phase, listed as ESK
[3] = Esk 84 mg + SOC, double-blind phase, listed as Esk
[4] = Esk 84 mg + SOC, follow-up phase

For `CN[C@]1(c2ccccc2Cl)CCCCC1=O` [esketamine, (S)-2-(2-chlorophenyl)-2-(methylamino)cyclohexanone], the “SAEs: depression-related events, number” value (ESK+SOC, follow-up phase) was 3, the “SAEs: suicidal ideation-related events, number” value (ESK+SOC, follow-up phase) was 7 and the “Serious TEAE Aggression, subjects n” value [1] was 0. The “Serious TEAE Depression suicidal, subjects %” value [1] was “(1.8%)”, the “Serious TEAE Depression, subjects %” value [1] was “(0.9%)” and the “Serious TEAE Depression, subjects n” value [1] was 1. The “Serious TEAE Diabetic ketoacidosis, subjects %” value [1] was “(0.9%)”, the “Serious TEAE Diabetic ketoacidosis, subjects n” value [1] was 1 and the “Serious TEAE Hepatobiliary disorders, subjects n” value [1] was 0. The “Serious TEAE Hypertransaminasaemia, subjects n” value [1] was 0, the “Serious TEAE Metabolism and nutrition disorders, subjects %” value [1] was “(0.9%)” and the “Serious TEAE Metabolism and nutrition disorders, subjects n” value [1] was 1. For the same molecule, the “Serious TEAE Psychiatric disorders, subjects n” value [1] was 3, the “Serious TEAE Suicidal ideation, subjects n” value [1] was 0 and the “Serious TEAE Suicide attempt, subjects %” value [1] was “(0.9%)”. The “Serious TEAE Suicide attempt, subjects n” value [1] was 1, the “Subjects with 1 or more TEAEs, %” value [1] was 88.5% and the “Subjects with related TEAEs, %” value [1] was “(79.6%)”. For the same molecule, the “Subjects with related severe TEAEs, %” value [1] was “(6.2%)”, the “Subjects with serious TEAEs, %” value [1] was 3.5% and the “TEAE Anxiety, subjects %” value [1] was “(5.3%)”. For the same molecule, the “TEAE Anxiety, subjects n” value [1] was 6, the “TEAE Blood pressure increased, subjects %” value [1] was “(16.8%)” and the “TEAE Blood pressure increased, subjects n” value [1] was 19. For the same molecule, the “TEAE Constipation, subjects %” value [1] was “(13.3%)”, the “TEAE Constipation, subjects n” value [1] was 15 and the “TEAE Dissociation, subjects %” value [1] was 29.2%. The “TEAE Dissociation, subjects n” value [1] was 33, the “TEAE Dizziness postural, subjects %” value [1] was “(5.3%)” and the “TEAE Dizziness postural, subjects n” value [1] was 6. For the same molecule, the “TEAE Dizziness, subjects %” value [1] was 35.4%, the “TEAE Dizziness, subjects n” value [1] was 40 and the “TEAE Dysgeusia, subjects n” value [1] was 16. For the same molecule, the “TEAE Ear and labyrinth disorders, subjects %” value [1] was “(8.0%)”, the “TEAE Ear and labyrinth disorders, subjects n” value [1] was 9 and the “TEAE Eye disorders, subjects %” value [1] was “(11.5%)”. The “TEAE Eye disorders, subjects n” value [1] was 13, the “TEAE Gastrointestinal disorders, subjects %” value [1] was “(38.1%)” and the “TEAE Gastrointestinal disorders, subjects n” value [1] was 43. For the same molecule, the “TEAE Headache, subjects n” value [1] was 21, the “TEAE Hypoaesthesia, subjects %” value [1] was “(7.1%)” and the “TEAE Hypoaesthesia, subjects n” value [1] was 8. The “TEAE Insomnia, subjects %” value [1] was “(6.2%)”, the “TEAE Insomnia, subjects n” value [1] was 7 and the “TEAE Investigations, subjects %” value [1] was “(24.8%)”. For the same molecule, the “TEAE Investigations, subjects n” value [1] was 28, the “TEAE Nausea, subjects %” value [1] was 20.4% and the “TEAE Nausea, subjects n” value [1] was 23. For the same molecule, the “TEAE Nervous system disorders, subjects %” value [1] was “(68.1%)”, the “TEAE Nervous system disorders, subjects n” value [1] was 77 and the “TEAE Psychiatric disorders, subjects %” value [1] was “(45.1%)”. For the same molecule, the “TEAE Psychiatric disorders, subjects n” value [1] was 51, the “TEAE Sedation, subjects %” value [1] was “(6.2%)” and the “TEAE Sedation, subjects n” value [1] was 7. The “TEAE Somnolence, subjects n” value [1] was 21, the “TEAE Vertigo, subjects %” value [1] was “(6.2%)” and the “TEAE Vertigo, subjects n” value [1] was 7. For the same molecule, the “TEAE Vision blurred, subjects %” value [1] was “(8.8%)”, the “TEAE Vision blurred, subjects n” value [1] was 10 and the “TEAE Vomiting, subjects %” value [1] was “(7.1%)”. For the same molecule, the “TEAE Vomiting, subjects n” value [1] was 8, the “TEAE dysgeusia, subjects %” value [1] was “(14.2%)” and the “TEAE headache, subjects %” value [1] was “(18.6%)”. The “TEAE leading to discontinuation: Aggression, subjects n” value [1] was 0, the “TEAE leading to discontinuation: Atrioventricular block first degree, subjects n” value [1] was 0 and the “TEAE leading to discontinuation: Blood pressure diastolic increased, subjects n” value [1] was 0. For the same molecule, the “TEAE leading to discontinuation: Blood pressure increased, subjects %” value [1] was 0.9%, the “TEAE leading to discontinuation: Blood pressure increased, subjects n” value [1] was 1 and the “TEAE leading to discontinuation: Cardiac disorders, subjects n” value [1] was 0. For the same molecule, the “TEAE leading to discontinuation: Confusional state, subjects %” value [1] was 0.9%, the “TEAE leading to discontinuation: Confusional state, subjects n” value [1] was 1 and the “TEAE leading to discontinuation: Dissociation, subjects %” value [1] was 0.9%. For the same molecule, the “TEAE leading to discontinuation: Dissociation, subjects n” value [1] was 1, the “TEAE leading to discontinuation: Dizziness, subjects %” value [1] was 0.9% and the “TEAE leading to discontinuation: Dizziness, subjects n” value [1] was 1. For the same molecule, the “TEAE leading to discontinuation: Hallucination, visual, subjects %” value [1] was 0.9%, the “TEAE leading to discontinuation: Hallucination, visual, subjects n” value [1] was 1 and the “TEAE leading to discontinuation: Headache, subjects %” value [1] was 0.9%. For the same molecule, the “TEAE leading to discontinuation: Headache, subjects n” value [1] was 1, the “TEAE leading to discontinuation: Hepatobiliary disorders, subjects n” value [1] was 0 and the “TEAE leading to discontinuation: Hypertransaminasaemia, subjects n” value [1] was 0. For the same molecule, the “TEAE leading to discontinuation: Hypoaesthesia, subjects %” value [1] was 0.9%, the “TEAE leading to discontinuation: Hypoaesthesia, subjects n” value [1] was 1 and the “TEAE leading to discontinuation: Investigations, subjects %” value [1] was 0.9%. The “TEAE leading to discontinuation: Investigations, subjects n” value [1] was 1, the “TEAE leading to discontinuation: Nervous system disorders, subjects %” value [1] was 2.7% and the “TEAE leading to discontinuation: Nervous system disorders, subjects n” value [1] was 3. For the same molecule, the “TEAE leading to discontinuation: Pharyngeal hypoaesthesia, subjects %” value [1] was 0.9%, the “TEAE leading to discontinuation: Pharyngeal hypoaesthesia, subjects n” value [1] was 1 and the “TEAE leading to discontinuation: Psychiatric disorders, subjects %” value [1] was 2.7%. For the same molecule, the “TEAE leading to discontinuation: Psychiatric disorders, subjects n” value [1] was 3, the “TEAE leading to discontinuation: Respiratory, thoracic and mediastinal disorders, subjects %” value [1] was 0.9% and the “TEAE leading to discontinuation: Respiratory, thoracic and mediastinal disorders, subjects n” value [1] was 1. For the same molecule, the “TEAE leading to discontinuation: Sedation, subjects %” value [1] was 0.9%, the “TEAE leading to discontinuation: Sedation, subjects n” value [1] was 1 and the “TEAE leading to discontinuation: Somnolence, subjects %” value [1] was 0.9%. For the same molecule, the “TEAE leading to discontinuation: Somnolence, subjects n” value [1] was 1, the “TEAE leading to discontinuation: Suicidal ideation, subjects n” value [1] was 0 and the “TEAE somnolence, subjects %” value [1] was “(18.6%)”. For the same molecule, the “Serious TEAE Depression suicidal, subjects n” value [2] was 1, the “Serious TEAE Psychiatric disorders, subjects %” value [2] was < 5% and the “Subjects with severe TEAEs, %” value [2] was 8.8%. For the same molecule, the “Serious TEAE Depression suicidal, subjects n” value [3] was 2, the “Serious TEAE Psychiatric disorders, subjects %” value [3] was “(2.7%)” and the “Subjects with 1 or more TEAEs, %” value [3] was “(88.5%)”. For the same molecule, the “Subjects with serious TEAEs, %” value [3] was “(3.5%)”, the “Subjects with severe TEAEs, %” value [3] was “(8.8%)” and the “TEAE Dissociation, subjects %” value [3] was “(29.2%)”. The “TEAE Dizziness, subjects %” value [3] was “(35.4%)”, the “TEAE Nausea, subjects %” value [3] was “(20.4%)” and the “Subjects with TEAEs leading to discontinuation of study agent, %” value (Esk 84 mg + SOC, double-blind phase, safety set) was 4.4%. For the same molecule, the “AE Anxiety, subjects %” value [4] was “(3.0%)”, the “AE Anxiety, subjects n” value [4] was 3 and the “AE Depression, subjects %” value [4] was “(8.9%)”. The “AE Depression, subjects n” value [4] was 9, the “AE Headache, subjects %” value [4] was “(5.9%)” and the “AE Headache, subjects n” value [4] was 6. The “AE Nervous system disorders, subjects %” value [4] was “(11.9%)”, the “AE Nervous system disorders, subjects n” value [4] was 12 and the “AE Psychiatric disorders, subjects %” value [4] was “(28.7%)”. For the same molecule, the “AE Psychiatric disorders, subjects n” value [4] was 29, the “AE Suicidal ideation, subjects %” value [4] was “(5.0%)” and the “AE Suicidal ideation, subjects n” value [4] was 5. For the same molecule, the “SAE Completed suicide, subjects %” value [4] was “(1.0%)”, the “SAE Completed suicide, subjects n” value [4] was 1 and the “SAE Depression suicidal, subjects %” value [4] was “(5.0%)”. For the same molecule, the “SAE Depression suicidal, subjects n” value [4] was 5, the “SAE Depression, subjects %” value [4] was “(1.0%)” and the “SAE Depression, subjects n” value [4] was 1. The “SAE Depressive symptom, subjects %” value [4] was “(1.0%)”, the “SAE Depressive symptom, subjects n” value [4] was 1 and the “SAE Major depression, subjects %” value [4] was “(1.0%)”. The “SAE Major depression, subjects n” value [4] was 1, the “SAE Musculoskeletal and connective tissue disorders, subjects n” value [4] was 0 and the “SAE Psychiatric disorders, subjects %” value [4] was “(12.9%)”. The “SAE Psychiatric disorders, subjects n” value [4] was 13, the “SAE Rhabdomyolysis, subjects n” value [4] was 0 and the “SAE Suicidal ideation, subjects %” value [4] was “(2.0%)”. For the same molecule, the “SAE Suicidal ideation, subjects n” value [4] was 2, the “SAE Suicide attempt, subjects %” value [4] was “(3.0%)” and the “SAE Suicide attempt, subjects n” value [4] was 3. The “Subjects with 1 or more AEs, %” value [4] was “(48.5%)”, the “Subjects with AEs leading to death, %” value [4] was “(1.0%)” and the “Subjects with serious AEs, %” value [4] was 12.9%. The “Subjects with severe AEs, %” value [4] was “(5.9%)”, the “Subjects with serious AEs, %” value (Esk 84 mg + SOC, follow-up phase, listed as Esk) was “(12.9%)” and the “Overall safety and tolerability (in words)” value (intranasal ESK+SOC) was “safe and tolerated”.
